Source: patent publication US20080008760A1, “Functionalized carbon nanotubes, a process for preparing the same and their use in medicinal chemistry” (priority 2003, published 2008)

What was measured:
[1] = tested on: Murine 3T3 cells (ATCC CCL-92); experiment: Fluorescent and confocal microscopy: penetration of FITC functionalized nanotubes into cells; format: cell-based; settings: 1 μM, 5 μM and 10 μM; FIG. 3: 40 minutes incubation
[2] = tested on: Murine 3T3 cells (ATCC CCL-92); experiment: Cytofluorometry: penetration of FITC functionalized nanotube into cells; format: cell-based; settings: 1 μM, 5 μM and 10 μM, 1 hour

Structure (SMILES): O=C(O)c1cc(NC(=S)NCCOCCOCCN2CCCC2)ccc1-c1c2ccc(=O)cc-2oc2cc(O)ccc12 [formula (L)]
- penetration into 3T3 cells (fluorescence microscopy, FIG. 3) [1]: have penetrated into 3T3 cells
- penetration into 3T3 cells (cytofluorometry) [2]: readily penetrate into 3T3 cells
